# Measured values taken from ChEMBL document CHEMBL6103582, “Computer-aided discovery of novel AMPK activators through virtual screening and SAR-driven synthesis” (Eur J Med Chem, 2025).
# Calls of active or inactive are those of the source. No cut-off for these calls is given here.
# Tests used:
# N2a-APPswe [1] = experiment: Activation of AMPK in mouse N2a APPswe cells assessed as increase in phosphorylation by measuring pAMPK/AMPK ratio at 10 uM measured after 24 hrs by Western blot analysis; assay type: cell-based; conditions: filed as activator
# N2a-APPswe [2] = experiment: Activation of AMPK in mouse N2a-APPswe cells assessed as increase in phosphorylation by measuring pACC/ACC ratio at 10 uM measured after 24 hrs by Western blot analysis; assay type: cell-based; conditions: filed as activator
# AMPK = experiment: Activation of AMPK gamma (unknown origin) assessed as increase in phosphorylation of SAMS peptide by measuring fold change at 10 uM measured after 30 mins by ADP-Glo assay; conditions: Homo sapiens, filed as activator
# [3] = Cytotoxicity against mouse N2a-APPswe cells assessed as cell viability at 5 uM measured after 24 hrs by WST-1 assay; assay type: toxicity, cell-based
# N2a-APPswe [4] = experiment: Activation of AMPK in mouse N2a-APPswe cells assessed as increase in phosphorylation by measuring pAMPK/AMPK ratio at 5 uM measured after 24 hrs by Western blot analysis; assay type: cell-based; conditions: filed as activator
# N2a-APPswe [5] = experiment: Activation of AMPK in mouse N2a-APPswe cells assessed as increase in phosphorylated ACC at Ser79 at 10 uM measured after 3 hrs by Western blot analysis; assay type: cell-based; conditions: filed as activator
# N2a-APPswe [6] = experiment: Activation of AMPK in mouse N2a-APPswe cells assessed as increase in phosphorylated Raptor at Ser792 at 10 uM measured after 3 hrs by Western blot analysis; assay type: cell-based; conditions: filed as activator
# N2a-APPswe [7] = experiment: Activation of AMPK in mouse N2a-APPswe cells assessed as increase in phosphorylated AMPK at Thr172 at 10 uM measured after 3 hrs by Western blot analysis; assay type: cell-based; conditions: filed as activator
SMILES,fold change (FC) (N2a-APPswe [1]),fold change (FC) (N2a-APPswe [2]),fold change (FC) (AMPK),other results
CCOC(=O)c1nn(CCCc2ccccc2)c2c1CN(C(=O)Cn1nc3ccccc3n1)CC2,> 1,> 1,–,–
Cc1ccc(NCc2ccc(C(=O)N3CCC(C(=O)O)CC3)cc2)cc1,> 1,> 1,–,–
O=C(CCn1cnnn1)N1CCCC(N2CCN(c3cccc(C(F)(F)F)c3)CC2)C1 (centres undefined),> 1,> 1,–,–
COc1ccc(OC)c(/C=C/C(=O)c2ccc(N)cc2)c1,–,–,1.93,–
Cc1ccccc1-c1noc(CCC(=O)NC(C)c2ccccc2-n2cccn2)n1 (centres undefined),> 1,> 1,–,–
Cc1cc(C)c(C)c(Oc2coc3cc(OC(=O)C(C)N4C(=O)c5ccccc5C4=O)ccc3c2=O)c1 (centres undefined),> 1,–,–,–
Cc1ccc(C)c(Oc2coc3cc(OC(=O)c4ccc(-c5ccccc5)cc4)ccc3c2=O)c1,> 1,–,–,–
NC(=O)c1ncn([C@@H]2O[C@H](CO)[C@@H](O)[C@H]2O)c1N,> 1,> 1,–,–
Cc1ccc(C)c(Oc2coc3cc(OCc4ccc(F)cc4)ccc3c2=O)c1,> 1,–,–,–
Nc1ccc(C(=O)/C=C/c2ccc(N3CCCCC3)cc2)cc1,–,–,2.16,Activity [3]: Non-toxic; fold change (FC) (N2a-APPswe [4]): > 1
CCOCCOC(=O)COc1ccc2c(=O)c(Oc3cc(C)ccc3C)coc2c1,> 1,–,–,–
CCOC(=O)N1CCN(C(=O)c2ccc(N3CCC(NCCn4nc(C)cc4C)CC3)cc2)CC1,> 1,> 1,–,–
COc1ccc(OC)c(/C=C/C(=O)c2cccc(NS(=O)(=O)c3ccc(Cl)cc3)c2)c1,–,–,1.94,–
COc1ccc(/C=C/C(=O)c2cccc(N)c2)cc1,–,–,2.3,Activity [3]: Non-toxic; fold change (FC) (N2a-APPswe [4]): > 1
O=C(O)C1CCCN(C(=O)Cn2nc(-c3ccc4ccccc4c3)ccc2=O)C1 (centres undefined),> 1,> 1,–,–
CN1CCN(c2ccc(C(=O)/C=C/c3ccc(O)cc3)cc2)CC1,–,–,1.52,–
COc1ccc(OC)c(/C=C/C(=O)c2cccc(N(S(=O)(=O)c3ccc(Cl)cc3)S(=O)(=O)c3ccc(Cl)cc3)c2)c1,–,–,2.53,Activity [3]: Non-toxic; fold change (FC) (N2a-APPswe [4]): > 1
Nc1cccc(C(=O)/C=C/c2ccc(N3CCCCC3)cc2)c1,–,–,2.05,Activity [3]: Non-toxic; fold change (FC) (N2a-APPswe [4]): > 1
COc1cc(O)ccc1/C=C/C(=O)c1cccc(N)c1,–,–,1.73,–
Cc1cc(-c2cc3c(n(Cc4cccnc4)c2=O)CCN(C(=O)c2ccc4c(c2)OCO4)C3)ccc1F,> 1,> 1,–,–

SMILES,fold change (FC) (N2a-APPswe [1]),fold change (FC) (N2a-APPswe [2]),fold change (FC) (AMPK),other results
COc1cc(O)ccc1/C=C/C(=O)c1ccc(N2CCNCC2)cc1,–,–,1.51,–
N#CC1C(=O)Nc2scc(-c3ccc(-c4ccccc4O)cc3)c2C1=O (centres undefined),> 1,> 1,–,fold change (FC) (N2a-APPswe [4]): > 1
COc1ccc(OC)c(/C=C/C(=O)c2cccc(N)c2)c1,–,–,2.62,Activity [3]: Non-toxic; fold change (FC) (N2a-APPswe [4]): > 1
Cc1ccc(C)c(Oc2coc3cc(OCc4ccc(Cl)cc4Cl)ccc3c2=O)c1,> 1,–,–,–
COc1ccc(OC)c(/C=C/C(=O)c2ccc(NS(=O)(=O)c3ccc(Cl)cc3)cc2)c1,–,–,2.45,Activity (N2a-APPswe [5]): Active; Activity (N2a-APPswe [6]): Active; Activity [3]: Non-toxic; Activity (N2a-APPswe [7]): Active; fold change (FC) (N2a-APPswe [4]): > 1
COc1ccc(/C=C/C(=O)c2cccc(NS(=O)(=O)c3ccc(Cl)cc3)c2)cc1,–,–,1.82,–
Cc1ccc(CCC(=O)Nc2ccc3c(c2)CN(C(=O)CCn2cnnn2)CC3)cc1,> 1,> 1,–,–
COc1ccc(/C=C/C(=O)c2ccc(N)cc2)c(OC)c1,–,–,–,Activity [3]: Non-toxic
Cn1ccnc1CNC(=O)CCc1nnc(-c2ccc(-c3ccccc3)cc2)o1,> 1,> 1,–,–
CN1[C@@H](c2ccccc2)[C@@H](C(=O)NCCn2ccnc2)C[C@@]1(C)C(=O)O,> 1,> 1,–,–
Cc1ccc(C)c(Oc2coc3cc(OC(=O)c4cccc(Br)c4)ccc3c2=O)c1,> 1,> 1,–,–
COCCN1C(=O)N(Cc2cccnc2)C(=O)C12CCN(Cc1nc(-c3ccccc3)cs1)CC2,> 1,< 1,–,–
O=C(/C=C/c1ccc(N2CCCCC2)cc1)c1ccc(O)cc1O,–,–,2.48,Activity [3]: Non-toxic; fold change (FC) (N2a-APPswe [4]): > 1
O=C(/C=C/c1ccc(N2CCCCC2)cc1)c1ccc(O)cc1,–,–,2.96,Activity [3]: Non-toxic; fold change (FC) (N2a-APPswe [4]): > 1
Cc1ccc(C)c(Oc2coc3cc(OCC(=O)OCC(C)C)ccc3c2=O)c1,> 1,–,–,–
Cc1ccc(C)c(Oc2coc3cc(OCC(=O)OC4CCCCC4)ccc3c2=O)c1,> 1,–,–,–
COc1ccc(OC)c(C(=O)c2ccc(C(=O)N3CCc4c(cnc(C)c4CNC(C)=O)C3)cc2)c1,> 1,> 1,–,–
Cc1ccc(C)c(Oc2coc3cc(OCCc4ccccc4)ccc3c2=O)c1,> 1,–,–,–
COc1ccc2c(=O)c(Oc3cc(C)ccc3C)coc2c1,> 1,–,–,–
